Tests used:
BxPC3 cells = experiment: Cell Titer-Glo anti-proliferation, BxPC3 cells; type: cell-based, human; conditions: 3 days, read-out: Anti-proliferative activity BxPC3 (IC50 class)
In short: (§1)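 Each line was exposed to graded compound concentrations for 3 days at 37 °C, 5% CO2, with final DMSO at 0.2%. Viability was measured by Cell Titer-Glo luminescence, with untreated cells as the maximum and medium as the minimum signal. IC50 came from a variable-slope log(inhibitor)-response fit.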

CYP2C9 = CYP2C9 (Homo sapiens (Human), UniProt P11712); experiment: Cytochrome P450 inhibition (fluorescence), CYP2C9; type: in vitro ADME; conditions: read-out: IC50 CYP2C9
Chain of CYP2C9 (P11712 whole entry, canonical isoform): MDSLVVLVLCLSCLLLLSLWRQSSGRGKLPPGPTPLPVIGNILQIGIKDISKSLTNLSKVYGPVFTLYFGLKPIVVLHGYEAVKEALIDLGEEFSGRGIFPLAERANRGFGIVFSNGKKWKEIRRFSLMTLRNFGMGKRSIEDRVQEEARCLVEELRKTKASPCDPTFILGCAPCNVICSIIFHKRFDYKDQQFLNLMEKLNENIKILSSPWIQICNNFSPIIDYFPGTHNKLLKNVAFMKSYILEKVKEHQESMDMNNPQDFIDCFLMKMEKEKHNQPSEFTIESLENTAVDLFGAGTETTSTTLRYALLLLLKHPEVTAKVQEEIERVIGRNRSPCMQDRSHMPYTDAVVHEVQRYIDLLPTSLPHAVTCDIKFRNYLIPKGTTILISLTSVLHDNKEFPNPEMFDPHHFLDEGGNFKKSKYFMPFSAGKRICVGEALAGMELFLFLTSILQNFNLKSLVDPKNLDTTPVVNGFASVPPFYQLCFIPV
Procedure: (§2) Enzymatic experiments were performed to quantify the inhibition of CYP450 enzyme activity of each isoform of CYP450 by small molecule inhibitors through fluorescence generated by the oxidation of the substrate by cytochrome P450. […] The Solution B composition used for the experiment was: 40 U/mL G6PDH (Sigma-aldrich, Cat #G6378). The substrate mix was 0.05× Solution A, 0.01× Solution B, 50 mM Potassium Phosphate, 0.01 mM BOMCC/0.01 mM EOMCC/0.001 mM DBOMF. […] The data were analyzed and processed using GraphPad Prism 6 software to obtain IC50 values.

CYP2C8 = CYP2C8 (Homo sapiens (Human), UniProt P10632); experiment: Cytochrome P450 inhibition (fluorescence), CYP2C8; type: in vitro ADME; conditions: read-out: IC50 CYP2C8
Chain of CYP2C8 (P10632 whole entry): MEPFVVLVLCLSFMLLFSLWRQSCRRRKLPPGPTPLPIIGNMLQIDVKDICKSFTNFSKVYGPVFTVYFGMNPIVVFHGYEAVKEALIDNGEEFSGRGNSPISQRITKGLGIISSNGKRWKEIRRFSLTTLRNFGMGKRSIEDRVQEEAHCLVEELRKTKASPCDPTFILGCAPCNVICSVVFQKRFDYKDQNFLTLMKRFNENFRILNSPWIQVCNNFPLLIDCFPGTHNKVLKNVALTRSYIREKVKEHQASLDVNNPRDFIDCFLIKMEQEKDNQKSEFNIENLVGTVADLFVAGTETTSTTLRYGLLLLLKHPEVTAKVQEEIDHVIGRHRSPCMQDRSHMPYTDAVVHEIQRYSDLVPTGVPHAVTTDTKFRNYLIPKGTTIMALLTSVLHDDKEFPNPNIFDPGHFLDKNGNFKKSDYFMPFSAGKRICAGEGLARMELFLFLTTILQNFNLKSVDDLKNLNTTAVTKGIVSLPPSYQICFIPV
Procedure: as §2

CYP3A4 = CYP3A4 (Homo sapiens (Human), UniProt P08684); experiment: Cytochrome P450 inhibition (fluorescence), CYP3A4; type: in vitro ADME; conditions: read-out: IC50 CYP3A4
Chain of CYP3A4 (P08684 whole entry): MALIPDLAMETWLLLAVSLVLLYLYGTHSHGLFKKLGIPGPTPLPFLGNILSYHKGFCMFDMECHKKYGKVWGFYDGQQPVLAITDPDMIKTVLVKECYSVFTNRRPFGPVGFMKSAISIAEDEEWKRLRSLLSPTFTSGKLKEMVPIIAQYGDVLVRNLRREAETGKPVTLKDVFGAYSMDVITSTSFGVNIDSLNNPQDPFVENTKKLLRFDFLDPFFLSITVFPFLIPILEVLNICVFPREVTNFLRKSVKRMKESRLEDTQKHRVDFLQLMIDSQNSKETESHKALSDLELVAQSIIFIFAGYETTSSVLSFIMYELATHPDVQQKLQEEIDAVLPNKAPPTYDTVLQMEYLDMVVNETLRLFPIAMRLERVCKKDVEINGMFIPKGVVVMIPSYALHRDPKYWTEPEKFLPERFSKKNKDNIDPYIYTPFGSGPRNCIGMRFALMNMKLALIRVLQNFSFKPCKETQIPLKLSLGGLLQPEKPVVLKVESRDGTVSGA
Procedure: as §2

CYP2D6 = CYP2D6 (Homo sapiens (Human), UniProt P10635); experiment: Cytochrome P450 inhibition (fluorescence), CYP2D6; type: in vitro ADME; conditions: read-out: IC50 CYP2D6
Chain of CYP2D6 (P10635 whole entry): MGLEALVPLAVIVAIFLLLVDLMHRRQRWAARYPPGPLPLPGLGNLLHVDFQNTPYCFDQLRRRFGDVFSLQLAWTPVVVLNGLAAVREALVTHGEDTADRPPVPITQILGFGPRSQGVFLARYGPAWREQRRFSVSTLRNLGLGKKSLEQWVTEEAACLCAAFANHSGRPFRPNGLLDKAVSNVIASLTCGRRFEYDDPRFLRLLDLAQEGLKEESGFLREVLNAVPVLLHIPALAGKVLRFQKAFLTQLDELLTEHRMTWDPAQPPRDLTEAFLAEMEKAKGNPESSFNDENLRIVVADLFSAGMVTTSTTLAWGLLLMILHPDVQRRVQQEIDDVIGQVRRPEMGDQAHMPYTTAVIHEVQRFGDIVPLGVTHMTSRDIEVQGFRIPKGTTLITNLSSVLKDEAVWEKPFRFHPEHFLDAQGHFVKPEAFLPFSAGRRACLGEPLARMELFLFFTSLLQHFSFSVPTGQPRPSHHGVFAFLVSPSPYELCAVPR
Procedure: as §2

CYP1A2 = CYP1A2 (Homo sapiens (Human), UniProt P05177); experiment: Cytochrome P450 inhibition (fluorescence), CYP1A2; type: in vitro ADME
Chain of CYP1A2 (P05177 whole entry): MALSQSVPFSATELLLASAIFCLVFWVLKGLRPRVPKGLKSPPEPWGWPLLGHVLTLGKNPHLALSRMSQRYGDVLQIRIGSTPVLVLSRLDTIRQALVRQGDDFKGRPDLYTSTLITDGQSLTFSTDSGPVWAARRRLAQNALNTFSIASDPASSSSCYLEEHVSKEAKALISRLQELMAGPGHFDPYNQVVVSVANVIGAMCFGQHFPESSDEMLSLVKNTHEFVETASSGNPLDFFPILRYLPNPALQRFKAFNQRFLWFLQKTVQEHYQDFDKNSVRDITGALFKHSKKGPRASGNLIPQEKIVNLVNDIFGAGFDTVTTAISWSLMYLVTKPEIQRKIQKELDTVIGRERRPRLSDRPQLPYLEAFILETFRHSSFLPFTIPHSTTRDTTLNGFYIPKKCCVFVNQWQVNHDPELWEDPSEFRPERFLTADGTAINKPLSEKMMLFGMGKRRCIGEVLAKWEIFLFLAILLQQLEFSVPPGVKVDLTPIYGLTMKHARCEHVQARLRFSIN
Procedure: as §2

OVCAR-3 cells = experiment: Cell Titer-Glo anti-proliferation, OVCAR-3 cells; type: cell-based; conditions: 3 days, read-out: Anti-proliferative activity OVCAR-3 (IC50 class)
In short: as §1

CYP 2B6 = CYP 2B6 (Homo sapiens (Human), UniProt P20813); experiment: Cytochrome P450 inhibition, CYP2B6; type: in vitro ADME
Chain of CYP 2B6 (P20813 whole entry): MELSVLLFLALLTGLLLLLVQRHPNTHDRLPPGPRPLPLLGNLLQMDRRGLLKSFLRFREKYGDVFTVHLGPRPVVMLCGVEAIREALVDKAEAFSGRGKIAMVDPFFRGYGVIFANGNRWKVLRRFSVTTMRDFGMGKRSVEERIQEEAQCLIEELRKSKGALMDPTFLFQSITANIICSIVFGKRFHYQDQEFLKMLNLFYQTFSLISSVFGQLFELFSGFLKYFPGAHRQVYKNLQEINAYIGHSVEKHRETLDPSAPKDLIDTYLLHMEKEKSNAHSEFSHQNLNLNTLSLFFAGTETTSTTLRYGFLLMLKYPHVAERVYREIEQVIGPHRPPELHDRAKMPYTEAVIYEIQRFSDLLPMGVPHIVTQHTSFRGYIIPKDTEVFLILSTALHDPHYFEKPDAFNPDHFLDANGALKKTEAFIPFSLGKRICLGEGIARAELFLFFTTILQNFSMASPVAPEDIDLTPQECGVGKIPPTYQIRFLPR
Procedure: as §2

HK2 cells = experiment: Cell Titer-Glo anti-proliferation, normal cells HK2; type: cell-based
In short: (§3)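 Cells were exposed to serial compound concentrations (0.2% DMSO final) for 3 days at 37 °C, 5% CO2, then lysed with Cell Titer-Glo and read by luminescence. Inhibition was referenced to untreated-cell and medium-only controls, and IC50 came from a four-parameter variable-slope log(inhibitor)–response fit.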

HT-29 cells = experiment: Cell Titer-Glo anti-proliferation, HT-29 cells; type: cell-based, human; conditions: 3 days, read-out: Anti-proliferative activity HT-29 (IC50 class)
In short: as §1

Wee1 protein = Wee1 protein (Homo sapiens (Human), UniProt P30291); experiment: TR-FRET binding of compound to Wee1 protein and Tracer 178; conditions: Tracer 178, read-out: IC50, inhibitory activity against Wee1 kinase
Chain of Wee1 protein (P30291 whole entry): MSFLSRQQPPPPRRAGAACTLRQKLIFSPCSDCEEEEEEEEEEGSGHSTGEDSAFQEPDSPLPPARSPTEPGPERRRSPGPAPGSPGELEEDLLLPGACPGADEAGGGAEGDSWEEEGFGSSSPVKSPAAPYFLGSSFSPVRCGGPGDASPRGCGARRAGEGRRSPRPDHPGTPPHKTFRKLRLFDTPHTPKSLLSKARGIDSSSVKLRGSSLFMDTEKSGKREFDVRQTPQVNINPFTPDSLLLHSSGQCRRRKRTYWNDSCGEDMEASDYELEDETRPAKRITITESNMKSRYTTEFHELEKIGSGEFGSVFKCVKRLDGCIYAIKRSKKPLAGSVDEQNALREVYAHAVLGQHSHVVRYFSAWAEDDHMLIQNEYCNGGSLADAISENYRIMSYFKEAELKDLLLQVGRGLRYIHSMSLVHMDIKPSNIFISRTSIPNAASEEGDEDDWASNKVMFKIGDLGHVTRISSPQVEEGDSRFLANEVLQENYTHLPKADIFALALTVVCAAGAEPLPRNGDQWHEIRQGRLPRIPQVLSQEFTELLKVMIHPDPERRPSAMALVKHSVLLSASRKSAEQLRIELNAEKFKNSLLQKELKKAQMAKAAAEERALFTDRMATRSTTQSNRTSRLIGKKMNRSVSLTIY

CYP2C19 = CYP2C19 (Homo sapiens (Human), UniProt P33261); experiment: Cytochrome P450 inhibition (fluorescence), CYP2C19; type: in vitro ADME; conditions: read-out: IC50 CYP2C19
Chain of CYP2C19 (P33261 whole entry): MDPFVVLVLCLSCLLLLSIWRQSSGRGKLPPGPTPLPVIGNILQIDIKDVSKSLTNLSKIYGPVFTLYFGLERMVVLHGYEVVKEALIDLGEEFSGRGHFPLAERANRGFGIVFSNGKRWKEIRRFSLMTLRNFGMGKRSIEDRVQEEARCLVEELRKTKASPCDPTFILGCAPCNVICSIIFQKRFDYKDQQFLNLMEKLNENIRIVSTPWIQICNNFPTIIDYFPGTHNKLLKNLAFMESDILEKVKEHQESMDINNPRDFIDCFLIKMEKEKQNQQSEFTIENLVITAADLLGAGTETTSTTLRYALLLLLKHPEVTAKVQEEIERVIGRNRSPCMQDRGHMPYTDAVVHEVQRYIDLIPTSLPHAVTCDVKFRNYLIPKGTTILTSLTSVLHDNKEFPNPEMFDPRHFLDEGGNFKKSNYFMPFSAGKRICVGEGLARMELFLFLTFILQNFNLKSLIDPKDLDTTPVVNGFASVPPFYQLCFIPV
Procedure: as §2

HUVEC cells = experiment: Cell Titer-Glo anti-proliferation, normal cells HUVEC; type: cell-based
In short: as §3

IC50 (BxPC3 cells): 100 to 1000 nM
IC50 (CYP2C9): > 10000 nM
IC50 (CYP2C8): > 10000 nM
IC50 (CYP3A4): > 10000 nM
IC50 (CYP2D6): > 10000 nM
IC50 (CYP1A2): > 10000 nM
IC50 (OVCAR-3 cells): 100 to 1000 nM
IC50 (CYP 2B6): > 10000 nM
IC50 (HT-29 cells): 100 to 1000 nM
IC50 (Wee1 protein): 5 to 10 nM
IC50 (CYP2C19): > 10000 nM
SMILES: C=CCn1c(=O)c2cnc(Nc3ccc(N4CCC5(CCN(C)CC5)CC4)cc3)nc2n1-c1ccc2c(n1)[C@H](O)C1(CC2)CC1 [Compound 37b]
IC50 (HK2 cells): 1530 nM
IC50 (HUVEC cells): > 10000 nM

From patent US20250304587A1, “WEE1 INHIBITOR, PREPARATION THEREFOR AND USE THEREOF” (JIANGSU TASLY DIYI PHARMACEUTICAL CO., LTD., priority 2022, published 2025)
